Key:
[1] = target: T1, trypsin-like sites (β2) of proteasome in MM cells (Homo sapiens, UniProt Q99436); assay: PROTEASOMEGLO assay of proteasome inhibition in MM cells; assay type: cell-based; settings: for Inhibition of trypsin-like sites, 6 h +NC-022 / Inhibition of trypsin-like sites, 6 h −NC-022: washout
T1 construct: endogenous in cells; host or cells: NCI-H929, RPMI-8226 and other MM cell lines
T1 sequence (Q99436 44-277): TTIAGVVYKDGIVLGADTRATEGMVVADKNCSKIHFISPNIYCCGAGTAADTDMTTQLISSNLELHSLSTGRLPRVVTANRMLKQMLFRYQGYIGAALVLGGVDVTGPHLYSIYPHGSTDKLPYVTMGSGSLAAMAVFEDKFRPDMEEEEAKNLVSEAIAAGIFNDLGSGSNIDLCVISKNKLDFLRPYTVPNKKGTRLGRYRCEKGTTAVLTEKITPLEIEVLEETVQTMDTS

[2] = test system: chymotrypsin-like sites (β5) of proteasome in MM cells; assay: as above; assay type: cell-based; settings: washout
[3] = test system: T2, chymotrypsin-like sites (β5) of proteasome in MM cells; assay: as above; assay type: cell-based; settings: for Inhibition of chymotrypsin-like sites, 6 h −NC-022: washout
T2 construct: other: NCI-H929; bortezomib 100 nM 1 h; bortezomib 11 nM 1 h; bortezomib 3.7 nM 1 h; bortezomib 33 nM 1 h; other: NCI-H9

chymotrypsin-like sites = settings: patients treated with carfilzomib; cited from earlier work
NCI-H929 cells = assay: ALAMAR BLUE cell viability assay; assay type: cell-based; settings: NCI-H929, viability at 48 h
Summary of the method: (§1)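 Myeloma lines were grown in RPMI-1640 with 10% FBS; viability of myeloma cells was read by ALAMAR BLUE mitochondrial dye conversion. PBMNC viability used CELL TITER-GLO ATP luminescence. Caspase-3/7 activity in NCI-H929 and MM1.R was measured with the APO-ONE homogeneous assay.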

KMS-12-BM cells = assay: ALAMAR BLUE cell viability assay; assay type: cell-based; settings: viability at 48 h
Summary of the method: as §1

[4] = test system: trypsin-like sites (β2) of proteasome in MM cells; assay: PROTEASOMEGLO assay of proteasome inhibition in MM cells; assay type: cell-based
β2 proteasome subunit = target: T3, β2 proteasome subunit (Homo sapiens, UniProt P49720+Q99436); assay: Competition assay in HEK-293T cell lysate with MV151; assay type: biochemical; settings: HEK293 extracts
T3 construct: Whole cell lysates of HEK-293T or EL-4 cells were made by sonication; endogenous in cells; host or cells: HEK-293T
Protocol: Protein concentration was determined by the Bradford assay.
Competitive inhibition of a proteasome active site is reflected by the disappearance of the corresponding band on a gel.

[5] = target: T4, chymotrypsin-like site of 26S proteasomes (Oryctolagus cuniculus, UniProt G1T4Q9); assay: Inhibition of purified 26S proteasomes, substrate Suc-LLVY-amc; assay type: biochemical, rabbit; settings: >>30 no inhibition at 30 μM, >30 inhibition between 10 and 50% at 30 μM, read-out: IC50 for sites in 26S proteasomes: Chym-L
T4 sequence (G1T4Q9 1-263): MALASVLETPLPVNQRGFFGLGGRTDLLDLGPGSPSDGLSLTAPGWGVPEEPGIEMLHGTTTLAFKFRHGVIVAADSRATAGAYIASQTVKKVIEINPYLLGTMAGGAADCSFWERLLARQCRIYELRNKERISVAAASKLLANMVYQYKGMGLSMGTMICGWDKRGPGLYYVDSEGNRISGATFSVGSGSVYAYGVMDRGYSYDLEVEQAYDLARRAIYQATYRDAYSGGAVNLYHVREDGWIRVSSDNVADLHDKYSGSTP
Protocol: 26S proteasomes were purified from rabbit muscle using known methods (Screen, et al. (2010) supra). […] NOVEX Bis-Tris gels (12%, Invitrogen) with MOPS running buffer were used for electrophoretic separation of catalytic subunits modified by active-site probes. Inhibition of active sites inside cells was assayed using luminescent PROTEASOMEGLO assay (Promega; Moravec, et al. (2009) Anal. Biochem. 387:294-302) according to known methods (Britton, et al. (2009) supra).

[6] = target: T5, trypsin-like site of 26S proteasomes (Oryctolagus cuniculus, UniProt G1SWK8); assay: Inhibition of purified 26S proteasomes, substrate Ac-RLR-amc; assay type: biochemical, rabbit; settings: purified 26S proteasomes; >>30 no inhibition at 30 μM, >30 inhibition between 10 and 50% at 30 μM; read-out: IC50 for sites in 26S proteasomes: Tr-L
T5 construct: IC50 for sites in 26S proteasomes: Tr-L; other: purified 26S proteasomes; other: 26S proteasomes from rabbit muscles
T5 sequence (G1SWK8 1-271): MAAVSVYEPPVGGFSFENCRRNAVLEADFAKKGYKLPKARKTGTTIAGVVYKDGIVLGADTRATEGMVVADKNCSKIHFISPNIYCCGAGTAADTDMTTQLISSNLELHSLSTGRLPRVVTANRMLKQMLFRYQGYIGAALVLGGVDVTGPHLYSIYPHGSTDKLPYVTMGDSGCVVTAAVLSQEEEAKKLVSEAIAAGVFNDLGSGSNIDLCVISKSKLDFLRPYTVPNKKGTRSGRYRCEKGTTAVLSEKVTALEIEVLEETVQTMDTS

Cathepsin B, H, L, S = assay: Cathepsin activity with pan-cathepsin substrate Z-FR-amc; assay type: cell-based; settings: NCI-H929 cells, 6 hour treatment
Protocol: Cathepsin B, H, L, S activity was measured with pan-cathepsin substrate Z-FR-amc (Kirschke & Wiederanders (1994) Methods Enzymol. 244:500-11) in extracts of cytosol-less cells at pH 6.0 (Screen, et al. (2010) supra). Cathepsin D activity was measured in cytosol-less extracts using SENSOLYTE 520 Cathepsin D Fluorometric Assay Kit (AnaSpec). Combined cathepsin D and E activity was measured using the same kit, in which cathepsin D substrate provided with the kit was replaced with 7-Methoxycoumarin-[…](Dnp)-X′-NH2 (SEQ ID NO:10; where “X′” stand for D-Arg) internally quenched fluorogenic substrate of cathepsin D and E. In this case, pH 3.0 assay buffer used for cell extraction. All activity observed using both procedures was inhibited by more than 98% by specific inhibitor of aspartic proteases pepstatin A.

[7] = KMS-12-BM, carfilzomib 11 nM 1 h
[8] = KMS-12-BM, carfilzomib 33 nM 1 h
[9] = KMS-12-BM, carfilzomib 100 nM 1 h
[10] = KMS-12-BM, carfilzomib 300 nM 1 h
[11] = KMS-12-BM, carfilzomib 900 nM 1 h
[12] = NCI-H929, carfilzomib 3.7 nM 1 h
[13] = NCI-H929, carfilzomib 11 nM 1 h
[14] = NCI-H929, carfilzomib 33 nM 1 h

CC(C)C[C@H](NC(=O)[C@H](CCc1ccccc1)NC(=O)CN1CCOCC1)C(=O)N[C@@H](Cc1ccccc1)C(=O)N[C@@H](CC(C)C)C(=O)[C@@]1(C)CO1 [Carfilzomib]
Inhibition of trypsin-like sites, 1 h [1, 7]: −3 ± 10 % control
Inhibition of trypsin-like sites, 6 h +NC-022 [1, 7]: 91 ± 2 % control
Inhibition of trypsin-like sites, 6 h −NC-022 [1, 7]: 5 ± 25 % control
Inhibition of trypsin-like sites, 1 h [1, 8]: 0 ± 11 % control
Inhibition of trypsin-like sites, 6 h +NC-022 [1, 8]: 91 ± 2 % control
Inhibition of trypsin-like sites, 6 h −NC-022 [1, 8]: 45 ± 4 % control
Inhibition of trypsin-like sites, 1 h [1, 9]: 18 ± 8 % control
Inhibition of trypsin-like sites, 6 h +NC-022 [1, 9]: 94 ± 2 % control
Inhibition of trypsin-like sites, 6 h −NC-022 [1, 9]: 62 ± 2 % control
Inhibition of trypsin-like sites, 1 h [1, 10]: 49 ± 18 % control
Inhibition of trypsin-like sites, 6 h +NC-022 [1, 10]: 93 ± 2 % control
Inhibition of trypsin-like sites, 6 h −NC-022 [1, 10]: 69 ± 2 % control
Inhibition of trypsin-like sites, 1 h [1, 11]: 75 ± 14 % control
Inhibition of trypsin-like sites, 6 h +NC-022 [1, 11]: 94 ± 3 % control
Inhibition of trypsin-like sites, 6 h −NC-022 [1, 11]: 72 ± 2 % control
Inhibition of trypsin-like sites, 1 h [1, 12]: −7 ± 18 % control
Inhibition of trypsin-like sites, 6 h +NC-022 [1, 12]: 93 ± 3 % control
Inhibition of trypsin-like sites, 6 h −NC-022 [1, 12]: 3 % control
Inhibition of trypsin-like sites, 1 h [1, 13]: 0 ± 14 % control
Inhibition of trypsin-like sites, 6 h +NC-022 [1, 13]: 93 ± 2 % control
Inhibition of trypsin-like sites, 6 h −NC-022 [1, 13]: 39 ± 36 % control
Inhibition of trypsin-like sites, 1 h [1, 14]: 17 ± 8 % control
Inhibition of trypsin-like sites, 6 h +NC-022 [1, 14]: 94 ± 3 % control
Inhibition of trypsin-like sites, 6 h −NC-022 [1, 14]: 46 ± 24 % control
Inhibition of chymotrypsin-like sites, 6 h +NC-022 [2, 7]: 63 ± 13 % control
Inhibition of chymotrypsin-like sites, 6 h +NC-022 [2, 8]: 84 ± 6 % control
Inhibition of chymotrypsin-like sites, 6 h +NC-022 [2, 9]: 90 ± 3 % control
Inhibition of chymotrypsin-like sites, 6 h +NC-022 [2, 10]: 95 ± 4 % control
Inhibition of chymotrypsin-like sites, 6 h +NC-022 [2, 11]: 99 ± 4 % control
Inhibition of chymotrypsin-like sites, 6 h +NC-022 [2, 12]: 41 ± 29 % control
Inhibition of chymotrypsin-like sites, 6 h +NC-022 [2, 13]: 52 ± 32 % control
Inhibition of chymotrypsin-like sites, 6 h +NC-022 [2, 14]: 71 ± 23 % control
Inhibition of chymotrypsin-like sites, 1 h [3, 7]: 75 ± 6 % control
Inhibition of chymotrypsin-like sites, 6 h −NC-022 [3, 7]: 67 ± 17 % control
Inhibition of chymotrypsin-like sites, 1 h [3, 8]: 90 ± 3 % control
Inhibition of chymotrypsin-like sites, 6 h −NC-022 [3, 8]: 97 ± 1 % control
Inhibition of chymotrypsin-like sites, 1 h [3, 9]: 95 ± 3 % control
Inhibition of chymotrypsin-like sites, 6 h −NC-022 [3, 9]: 97 ± 1 % control
Inhibition of chymotrypsin-like sites, 1 h [3, 10]: 97 ± 3 % control
Inhibition of chymotrypsin-like sites, 6 h −NC-022 [3, 10]: 97 ± 1 % control
Inhibition of chymotrypsin-like sites, 1 h [3, 11]: 98 ± 3 % control
Inhibition of chymotrypsin-like sites, 6 h −NC-022 [3, 11]: 97 ± 0 % control
Inhibition of chymotrypsin-like sites, 1 h [3, 12]: 14 ± 43 % control
Inhibition of chymotrypsin-like sites, 6 h −NC-022 [3, 12]: 65.5 % control
Inhibition of chymotrypsin-like sites, 1 h [3, 13]: 39 ± 35 % control
Inhibition of chymotrypsin-like sites, 6 h −NC-022 [3, 13]: 89 ± 11 % control
Inhibition of chymotrypsin-like sites, 1 h [3, 14]: 75 ± 17 % control
Inhibition of chymotrypsin-like sites, 6 h −NC-022 [3, 14]: 95 ± 7 % control
inhibition of the chymotrypsin-like sites in patients (chymotrypsin-like sites): ~90%
Viability +NC-022 (NCI-H929 cells; carfilzomib 3.7 nM 1 h): 36 ± 15 % control
Viability −NC-022 (NCI-H929 cells; carfilzomib 3.7 nM 1 h): 99 ± 9 % control
Viability +NC-022 (NCI-H929 cells; carfilzomib 11 nM 1 h): 14 ± 8 % control
Viability −NC-022 (NCI-H929 cells; carfilzomib 11 nM 1 h): 78 ± 15 % control
Viability +NC-022 (NCI-H929 cells; carfilzomib 33 nM 1 h): 4 ± 2 % control
Viability −NC-022 (NCI-H929 cells; carfilzomib 33 nM 1 h): 30 ± 11 % control
Viability +NC-022 (KMS-12-BM cells; carfilzomib 11 nM 1 h): 69 ± 2 % control
Viability −NC-022 (KMS-12-BM cells; carfilzomib 11 nM 1 h): 95 ± 3 % control
Viability +NC-022 (KMS-12-BM cells; carfilzomib 33 nM 1 h): 40 ± 3 % control
Viability −NC-022 (KMS-12-BM cells; carfilzomib 33 nM 1 h): 91 ± 3 % control
Viability +NC-022 (KMS-12-BM cells; carfilzomib 100 nM 1 h): 27 ± 5 % control
Viability −NC-022 (KMS-12-BM cells; carfilzomib 100 nM 1 h): 83.5 ± 3 % control
Viability +NC-022 (KMS-12-BM cells; carfilzomib 300 nM 1 h): 15 ± 1 % control
Viability −NC-022 (KMS-12-BM cells; carfilzomib 300 nM 1 h): 71 ± 2 % control
Viability +NC-022 (KMS-12-BM cells; carfilzomib 900 nM 1 h): 9 ± 1 % control
Viability −NC-022 (KMS-12-BM cells; carfilzomib 900 nM 1 h): 41 ± 7 % control

CC(C)C[C@H](NC(=O)[C@H](Cc1ccc(CN)cc1)NC(=O)[C@H](Cc1ccccc1)N=[N+]=[N-])C(=O)N[C@H](/C=C/S(C)(=O)=O)Cc1ccc(CN)cc1 [Compound 52, N3-Phe-Phe (4-CH2NH2)-Leu-Phe (4-CH2NH2)-VS]
difference in IC50 for trypsin-like activity between NCI-H929 and RPMI-8226 [4]: 2.5 fold
potency in extracts of human cells (β2 proteasome subunit): most potent inhibitor in extracts
IC50 [5]: 3900 nM
IC50 [6]: 6.6 nM
inhibition of cathepsins (Z-FR-amc) (Cathepsin B, H, L, S): slightly more potent inhibitor of cathepsins

— patent publication US8609610B2, “Inhibitors of the trypsin-like site of the proteasome and methods of use thereof” (Trustees of Dartmouth College, priority 2011, dated 2013)
